The record followed here is ChEMBL document CHEMBL5291721, “A preclinical secondary pharmacology resource illuminates target-adverse drug reaction associations of marketed drugs” (Nat Commun, 2023).

Structures are written as SMILES.

The target in assay [1] is T1, 5-hydroxytryptamine receptor 3A (Homo sapiens, UniProt P46098).
T1 sequence (P46098 whole entry): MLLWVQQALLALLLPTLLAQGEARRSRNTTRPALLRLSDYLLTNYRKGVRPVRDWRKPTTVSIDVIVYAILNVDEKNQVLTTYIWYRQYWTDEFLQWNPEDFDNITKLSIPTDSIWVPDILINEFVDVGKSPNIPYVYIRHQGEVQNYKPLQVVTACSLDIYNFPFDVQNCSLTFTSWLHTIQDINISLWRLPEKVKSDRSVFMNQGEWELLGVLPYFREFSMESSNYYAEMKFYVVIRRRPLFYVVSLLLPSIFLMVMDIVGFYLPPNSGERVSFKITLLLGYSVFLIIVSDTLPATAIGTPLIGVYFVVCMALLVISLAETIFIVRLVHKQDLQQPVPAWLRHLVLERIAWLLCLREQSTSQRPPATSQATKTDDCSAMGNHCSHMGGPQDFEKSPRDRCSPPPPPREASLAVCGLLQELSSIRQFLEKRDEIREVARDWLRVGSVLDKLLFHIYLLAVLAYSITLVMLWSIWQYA
The class given is functional.

Assay [2] concerns the target T2, Progesterone receptor (Homo sapiens, UniProt P06401).
T2 sequence (P06401 whole entry): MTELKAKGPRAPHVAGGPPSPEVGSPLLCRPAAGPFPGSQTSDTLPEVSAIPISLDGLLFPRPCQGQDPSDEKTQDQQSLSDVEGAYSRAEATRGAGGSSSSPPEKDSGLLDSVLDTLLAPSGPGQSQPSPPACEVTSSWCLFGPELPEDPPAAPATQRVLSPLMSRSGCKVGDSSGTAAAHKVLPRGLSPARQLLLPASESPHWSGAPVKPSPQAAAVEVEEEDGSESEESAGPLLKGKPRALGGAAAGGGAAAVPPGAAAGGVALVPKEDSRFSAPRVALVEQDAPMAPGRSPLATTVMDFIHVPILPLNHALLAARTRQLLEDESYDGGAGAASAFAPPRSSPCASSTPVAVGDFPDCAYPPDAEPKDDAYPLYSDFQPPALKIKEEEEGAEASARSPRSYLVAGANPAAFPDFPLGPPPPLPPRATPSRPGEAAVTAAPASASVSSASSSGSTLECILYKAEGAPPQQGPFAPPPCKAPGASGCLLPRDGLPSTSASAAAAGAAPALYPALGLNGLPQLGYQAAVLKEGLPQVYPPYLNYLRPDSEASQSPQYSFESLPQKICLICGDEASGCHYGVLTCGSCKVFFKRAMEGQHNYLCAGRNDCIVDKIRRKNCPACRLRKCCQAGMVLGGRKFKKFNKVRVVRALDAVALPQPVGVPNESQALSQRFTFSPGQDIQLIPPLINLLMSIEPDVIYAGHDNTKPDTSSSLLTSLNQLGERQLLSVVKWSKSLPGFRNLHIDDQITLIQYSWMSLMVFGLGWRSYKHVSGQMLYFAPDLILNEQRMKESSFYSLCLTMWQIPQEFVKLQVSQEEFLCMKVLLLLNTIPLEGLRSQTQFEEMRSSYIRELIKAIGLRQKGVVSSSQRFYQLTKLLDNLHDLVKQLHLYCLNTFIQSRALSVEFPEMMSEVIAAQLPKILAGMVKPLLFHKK
In kind it is functional.

Assay [3] has as its target T2, Progesterone receptor.
The target in assay [4] is Cannabinoid receptor 1 (Homo sapiens, UniProt P21554). The class given is functional, cell-based.
Assay [5] addresses T3, Amine oxidase [flavin-containing] A (Homo sapiens, UniProt P21397).
T3 sequence (P21397 whole entry): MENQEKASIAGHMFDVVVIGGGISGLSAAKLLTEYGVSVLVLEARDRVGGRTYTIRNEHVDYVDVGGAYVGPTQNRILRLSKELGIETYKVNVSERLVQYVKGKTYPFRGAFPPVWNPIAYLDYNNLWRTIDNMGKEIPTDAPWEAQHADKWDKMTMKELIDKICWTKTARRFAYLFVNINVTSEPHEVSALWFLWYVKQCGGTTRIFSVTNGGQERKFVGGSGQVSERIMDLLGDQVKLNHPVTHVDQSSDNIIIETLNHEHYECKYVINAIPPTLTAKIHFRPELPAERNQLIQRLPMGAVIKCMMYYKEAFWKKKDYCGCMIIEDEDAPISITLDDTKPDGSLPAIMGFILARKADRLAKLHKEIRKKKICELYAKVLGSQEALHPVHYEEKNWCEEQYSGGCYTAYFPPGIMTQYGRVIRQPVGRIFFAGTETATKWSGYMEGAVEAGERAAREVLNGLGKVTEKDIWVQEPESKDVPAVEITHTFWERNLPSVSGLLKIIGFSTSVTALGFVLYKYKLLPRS
The class given is functional.

In assay [6] the target is Prostaglandin G/H synthase 1 (Homo sapiens, UniProt P23219). The class given is functional.
Assay [7] concerns the target T4, Muscarinic acetylcholine receptor M2 (Homo sapiens, UniProt P08172).
T4 sequence (P08172 whole entry): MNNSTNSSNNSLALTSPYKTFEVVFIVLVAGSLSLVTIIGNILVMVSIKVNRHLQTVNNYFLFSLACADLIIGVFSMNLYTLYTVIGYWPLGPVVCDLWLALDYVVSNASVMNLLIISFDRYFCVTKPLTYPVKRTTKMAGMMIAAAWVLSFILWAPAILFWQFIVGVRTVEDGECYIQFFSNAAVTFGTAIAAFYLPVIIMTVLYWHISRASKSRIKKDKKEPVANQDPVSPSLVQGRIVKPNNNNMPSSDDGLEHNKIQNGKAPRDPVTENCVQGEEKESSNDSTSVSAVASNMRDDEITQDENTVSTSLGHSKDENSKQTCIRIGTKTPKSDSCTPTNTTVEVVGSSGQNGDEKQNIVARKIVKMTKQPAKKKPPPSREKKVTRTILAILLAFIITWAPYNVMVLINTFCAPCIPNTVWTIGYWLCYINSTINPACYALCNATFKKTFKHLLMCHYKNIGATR
Further: assay procedure not described here.

Sequence of Prostaglandin G/H synthase 1 (P23219 whole entry): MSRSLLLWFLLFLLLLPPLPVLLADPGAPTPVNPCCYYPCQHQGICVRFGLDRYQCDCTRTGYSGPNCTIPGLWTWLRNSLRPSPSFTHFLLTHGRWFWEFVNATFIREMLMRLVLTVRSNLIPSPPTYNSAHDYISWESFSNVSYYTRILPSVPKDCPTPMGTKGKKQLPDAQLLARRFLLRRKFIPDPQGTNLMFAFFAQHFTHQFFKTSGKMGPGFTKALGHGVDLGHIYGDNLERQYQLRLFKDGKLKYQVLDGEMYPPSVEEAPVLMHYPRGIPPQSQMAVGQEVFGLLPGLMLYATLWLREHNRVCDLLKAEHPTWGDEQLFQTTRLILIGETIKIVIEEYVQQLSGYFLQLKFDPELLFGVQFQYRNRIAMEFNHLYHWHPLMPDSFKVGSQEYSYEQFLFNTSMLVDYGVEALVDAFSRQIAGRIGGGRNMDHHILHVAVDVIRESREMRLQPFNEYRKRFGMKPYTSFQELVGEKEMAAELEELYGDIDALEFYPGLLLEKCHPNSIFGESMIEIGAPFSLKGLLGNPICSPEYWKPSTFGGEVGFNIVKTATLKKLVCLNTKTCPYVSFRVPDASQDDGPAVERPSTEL
Sequence of Cannabinoid receptor 1 (P21554 whole entry): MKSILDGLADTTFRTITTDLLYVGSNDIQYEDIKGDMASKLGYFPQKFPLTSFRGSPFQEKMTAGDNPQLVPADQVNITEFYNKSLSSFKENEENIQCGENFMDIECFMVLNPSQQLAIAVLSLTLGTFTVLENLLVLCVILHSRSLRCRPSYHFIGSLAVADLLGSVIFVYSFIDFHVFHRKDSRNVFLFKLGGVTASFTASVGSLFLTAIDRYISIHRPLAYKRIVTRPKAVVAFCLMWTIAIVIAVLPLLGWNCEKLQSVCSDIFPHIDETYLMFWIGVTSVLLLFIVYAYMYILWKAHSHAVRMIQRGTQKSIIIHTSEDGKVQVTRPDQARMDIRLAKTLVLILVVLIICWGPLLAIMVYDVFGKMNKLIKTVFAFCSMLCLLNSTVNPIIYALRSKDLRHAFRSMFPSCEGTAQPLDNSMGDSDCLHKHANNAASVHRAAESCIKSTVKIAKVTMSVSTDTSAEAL

Usually AC50 stands for the concentration at which the activity in the assay is half-maximal. For the molecule `COc1ccc(CC2c3cc(OC)c(OC)cc3CC[N+]2(C)CCC(=O)OCCCCCOC(=O)CC[N+]2(C)CCc3cc(OC)c(OC)cc3C2Cc2ccc(OC)c(OC)c2)cc1OC` (stereo not given), the AC50 in assay [1] and in assay [2] was > 30 µM throughout.

With `CC(C(=O)O)c1ccc2c(c1)[nH]c1ccc(Cl)cc12` (stereo not given) [CARPROFEN], the AC50 in assay [1] and in assay [2] was > 30 µM in each case.

As to `C#C[C@]1(O)CC[C@H]2[C@@H]3CCC4=CC(=O)CC[C@@H]4[C@H]3C(=C)C[C@@]21CC` [ETONOGESTREL], the AC50 in assay [1] was > 30 µM; in assay [3] it was 0.003 µM; in assay [4] it was > 30 µM; in assay [5] it was > 30 µM; in assay [6], > 30 µM; in assay [7], > 30 µM.

Regarding `CN(CC1(C)CCCO1)S(=O)(=O)c1ccc(Cl)c(S(N)(=O)=O)c1` (stereo not given) [MEFRUSIDE], the AC50 in assay [1], in assay [3], in assay [4], in assay [5], in assay [6] and in assay [7] was > 30 µM each time.

Turning to `CC(=O)O[C@]1(C(C)=O)CC[C@H]2[C@@H]3C=C(C)C4=CC(=O)CC[C@@H]4[C@H]3CC[C@@]21C` [NOMEGESTROL ACETATE], the AC50 in assay [1] was > 30 µM; in assay [3], 0.003 µM; in assay [4] it was > 30 µM; in assay [5] it was > 30 µM; in assay [6], > 30 µM; in assay [7], > 30 µM.

As for `O=C(O)c1cc(/N=N/c2ccc(O)c(C(=O)O)c2)ccc1O` [OLSALAZINE], the AC50 in assay [3], in assay [5], in assay [6] and in assay [7] was > 30 µM throughout.

`CCOC(=O)C1=C[C@@H](OC(CC)CC)[C@H](NC(C)=O)[C@@H](N)C1` [OSELTAMIVIR]: the AC50 in assay [3], in assay [5], in assay [6] and in assay [7] was > 30 µM throughout.

Take `Cc1onc(-c2ccccc2)c1C(=O)N[C@@H]1C(=O)N2[C@@H]1SC(C)(C)[C@@H]2C(=O)O` [OXACILLIN]: the concentration at half-maximal activity (AC50) in assay [3], in assay [5], in assay [6] and in assay [7] was > 30 µM throughout.

`CCOC(=O)c1c(C)cc2c(CO)n[nH]c(=O)c2c1C` [OXAGRELATE]: the half-maximal activity concentration (AC50) in assay [3], in assay [5], in assay [6] and in assay [7] was > 30 µM throughout.

Regarding `CCn1cc(C(=O)O)c(=O)c2cc3c(cc21)OCO3` [OXOLINIC ACID], the AC50 in assay [3], in assay [5], in assay [6] and in assay [7] was > 30 µM in each case.

Consider `N#Cc1ccc2c(c1)N(CCCN1CCC(O)CC1)c1ccccc1S2` [PERICIAZINE], for which the AC50 was 22.1 µM in assay [3], > 30 µM in assay [5], > 30 µM in assay [6] and 5.87 µM in assay [7].

`FC(F)(F)c1ccc(CNc2ccc(Cc3c[nH]c4ncc(Cl)cc34)cn2)cn1` [PEXIDARTINIB]: the concentration at half-maximal activity (AC50) is 9.95 µM in assay [3], > 30 µM in assay [5], > 30 µM in assay [6] and 0.496 µM in assay [7].

Consider `Nc1ccc(C(=O)Oc2ccccc2)c(O)c1` [PHENYL AMINOSALICYLATE], for which the AC50 in assay [3], in assay [5], in assay [6] and in assay [7] was > 30 µM each time.

For the molecule `CN1CCC(=C2c3ccccc3Sc3ccccc32)CC1` [PIMETHIXENE], the concentration at half-maximal activity (AC50) was > 30 µM in assay [3], > 30 µM in assay [5], > 30 µM in assay [6] and 0.0071 µM in assay [7].

In the case of `[H]/N=C(\N/C(=N/[H])Nc1ccc(Cl)cc1)NC(C)C` [PROGUANIL], the AC50 in assay [3], in assay [5], in assay [6] and in assay [7] was > 30 µM each time.

For `CC(CN1CC(=O)NC(=O)C1)N1CC(=O)NC(=O)C1` (stereo not given) [RAZOXANE], the AC50 in assay [3] is > 30 µM; in assay [5], > 30 µM; in assay [6], > 3 µM; in assay [7], > 30 µM.

On to `CC[C@@]1(O)C(=O)OCc2c1cc1n(c2=O)Cc2cc3c([N+](=O)[O-])cccc3nc2-1` [RUBITECAN], for which the AC50 in assay [3], in assay [5], in assay [6] and in assay [7] was > 30 µM in each case.

Consider `N[C@@H](CO)C(=O)O` [SERINE], for which the AC50 in assay [3] is > 30 µM; in assay [5], > 10 µM; in assay [6], > 30 µM; in assay [7] it was > 30 µM.

Consider `OC[C@@H](O)[C@@H](O)[C@H](O)[C@@H](O)CO` [SORBITOL], for which the AC50 in assay [3], in assay [5], in assay [6] and in assay [7] was > 30 µM throughout.

In the case of `CC(C)OC(=O)CCC/C=C\C[C@@H]1[C@@H](/C=C/C(F)(F)COc2ccccc2)[C@H](O)C[C@@H]1O` [TAFLUPROST], the half-maximal activity concentration (AC50) in assay [3], in assay [5], in assay [6] and in assay [7] was > 30 µM in each case.

On to `C[C@]1(Cn2ccnn2)[C@H](C(=O)O)N2C(=O)C[C@H]2S1(=O)=O` [TAZOBACTAM], for which the AC50 in assay [3], in assay [5], in assay [6] and in assay [7] was > 30 µM in each case.

As to `CC[C@H]1OC(=O)[C@H](C)C(=O)[C@H](C)[C@@H](O[C@@H]2O[C@H](C)C[C@H](N(C)C)[C@H]2O)[C@](C)(OC)C[C@@H](C)C(=O)[C@H](C)[C@H]2N(CCCCn3cnc(-c4cccnc4)c3)C(=O)O[C@]12C` [TELITHROMYCIN], the AC50 in assay [3] was > 30 µM; in assay [5] it was > 30 µM; in assay [6] it was 20.6 µM; in assay [7], > 30 µM.

With `CC(C)(C)NCC(O)c1cc(O)cc(O)c1` (stereo not given) [TERBUTALINE], the AC50 in assay [2] was > 30 µM.

`CC(=O)Oc1cc(C(F)(F)F)ccc1C(=O)O` [TRIFLUSAL]: the AC50 in assay [3], in assay [5], in assay [6] and in assay [7] was > 30 µM each time.

Take `CCCC(CCC)C(=O)O` [VALPROIC ACID]: the AC50 in assay [1], in assay [3], in assay [5], in assay [6] and in assay [7] was > 30 µM each time.
